The source of these data is US6992095B2, “Stilbene compounds comprising an adamantyl group, compositions and methods thereof” (Galderma Research & Development, S.N.C., priority 1996, dated 2006).

The assay has as its system mouse embryonic teratocarcinoma F9 cells. Briefly: mouse embryonic teratocarcinoma F9 cell differentiation test (antagonist activity). The following applies: inhibition by 50% of agonist effect on secretion of plasminogen activator, CD 2043 at 10 nM, incubation for three days, read-out: Antagonist against CD 2043 (10 nM) F9 differentiation test IC50. In kind it is cell-based. An excerpt: The compounds according to the invention show activity in the test of differentiation of mouse embryonic teratocarcinoma cells (F9) (Cancer Research, 43, 5268 (1983)) and/or in the test of inhibition of ornithine decarboxylase after induction with TPA in mice (Cancer Research, 38, 793–801 (1978)). These tests show the activities of these compounds in the fields of cell differentiation and cell proliferation, respectively. In the test of cell (F9) differentiation, […] to retinoic acid receptors. […] Some of these compounds are thus also active in a test which is used to identify molecules which are RAR antagonists, as described in French patent application No. 95/07302 filed on 19 Jun. 1995 by the same Assignee as the present invention, which is incorporated by reference in its entirety herein. […] Thus, the response to a topical application, to the ear of a mammal, of an RAR-agonist molecule, which corresponds to an increase in the thickness of this ear, may be inhibited by the systemic or topical administration of an RAR-antagonist molecule. In addition, some of these compounds may provide synergism to the biological activity of products binding to the nuclear receptors.
The antagonist activity of the compounds of formula (I) was evaluated in the mouse embryonic teratocarcinoma F9 cell differentiation test, (Cancer Research, 43, 5268 (1983)).
The F9 cells were inoculated in 12-well clusters, the compounds were tested at from 10^−9 to 10^−5 M in the presence of all-trans-retinoic acid or of a synthetic agonist retinoid, 4-(5,6,7,8-tetrahydro-5,5,8,8-tetramethyl-2-naphthylaminomethyl)benzoic acid (CD 2043), at 10^−8 M. After incubation for three days, the morphological observations were carried out and the concentration of the test compound which inhibits the agonist effect on the secretion of the plasminogen activator by 50% (IC50) was determined.

Read-outs that look alike come from different tables or passages of the source.

In general, IC50 refers to the midpoint of a concentration-inhibition curve. In the case of `COCCOCOc1ccc(/C=C/c2ccc(C(=O)O)cc2)cc1C12CC3CC(CC(C3)C1)C2` [Example 2, 4-[(E)-2-(3-(1-Adamantyl)-4-methoxyethoxymethoxy-phenyl)ethenyl]benzoic acid], where the note is “Mus musculus, F9, 72 h”, the half-inhibitory concentration (IC50) was 310 nM.
On the same count and under the same terms, the value for `COCCOCOc1ccc(/C(C)=C/c2ccc(C(=O)O)cc2)cc1C12CC3CC(CC(C3)C1)C2` [Example 4, 4-[(E)-2-(3-(1-Adamantyl)-4-methoxyethoxymethoxy-phenyl)-1-propenyl]benzoic acid] was 9 nM.
On to `COCCOCOc1ccc(/C(C)=C\c2ccc(C(=O)O)cc2)cc1C12CC3CC(CC(C3)C1)C2` [Example 5, 4-[(Z)-2-(3-(1-Adamantyl)-4-methoxyethoxymethoxy-phenyl)-1-prorenyl]benzoic acid], for which the 50% inhibitory concentration (IC50) was found to be 630 nM.
Still for that read-out and setting: the same measure for `COCCOCOc1ccc(/C(C)=C/c2ccc(C(=O)O)nc2)cc1C12CC3CC(CC(C3)C1)C2` [Example 7, 5-{2-[3-Adamant-1-yl-4-(2-methoxyethoxymethoxy)-phenyl]proxpen-(E)-yl}pyridine-2-carboxylic acid]: 600 nM; for `COCCOCOc1ccc(/C(C)=C/c2ccc(C(=O)O)cn2)cc1C12CC3CC(CC(C3)C1)C2` [Example 10, 6-{2-[3-Adamant-1-yl-4-(2-methoxyethoxymethoxy)-phenyl]proven-(E)-yl}nicotinic acid]: 35 nM.
